Structures are written as SMILES. The source made the active and inactive calls. The calls are words filed in the database; no cut-off is given here.

The values below come from ChEMBL document CHEMBL3046402, “Synthesis of substituted benzo[d]thiazol-2-ylcarbamates as potential anticonvulsants” (2013).

For test [1], the system named is Mus musculus. The experiment in a line: Anticonvulsant activity in Swiss albino Mus musculus (mouse) assessed as time of onset of PTZ-induced clonic convulsion at 35 mg/kg administered 60 min prior to PTZ-challenge (reference value: 59.166 +/- 0.04216 Secs). Type of test: functional.
Test [2] concerns Mus musculus. The experiment in a line: Anticonvulsant activity in Swiss albino Mus musculus (mouse) assessed as latency time of maximal electric shock-induced clonus onset at 35 mg/kg administered 30 min prior to maximal electric shock-challenge (reference value: 3.16 +/- 0.0833 min). Type of test: functional.
For test [3], the system named is Mus musculus. The experiment in a line: Anticonvulsant activity in Swiss albino Mus musculus (mouse) assessed protection against PTZ-induced clonic convulsion at 35 mg/kg administered 60 min prior to PTZ-challenge measured up to 30 min relative to control. Type of test: functional.
Test [4] has as its system Mus musculus. The experiment in a line: Anticonvulsant activity in Swiss albino Mus musculus (mouse) assessed as protection against maximal electric shock-induced death at 35 mg/kg administered 30 min prior to maximal electric shock-challenge. Type of test: functional, organism-based. On the set-up: dose 35 mg/kg.
The test system of test [5] is Mus musculus. The experiment in a line: Anticonvulsant activity against maximal electric shock-induced seizures in Swiss albino Mus musculus (mouse) assessed as time duration of tonic flexions at 35 mg/kg administered 30 min prior to maximal electric shock-challenge (reference value: 0 secs). The test is classed as functional.
In test [6] the test system is Mus musculus. As to the kind of experiment: Anticonvulsant activity in Swiss albino Mus musculus (mouse) assessed as time duration of maximal electric shock-induced tonic extension at 35 mg/kg administered 30 min prior to maximal electric shock-challenge (reference value: 20.66 +/- 0.8433 secs). Type of test: functional.
Test [7] relates to Mus musculus. As to the kind of experiment: Anticonvulsant activity in Swiss albino Mus musculus (mouse) assessed as protection against maximal electric shock-induced death at 20 mg/kg administered 30 min prior to maximal electric shock-challenge. Type of test: functional, organism-based. Also on record: dose 20 mg/kg.
Test [8] has as its system Mus musculus. The experiment in a line: Anticonvulsant activity against maximal electric shock-induced seizures in Swiss albino Mus musculus (mouse) assessed as time duration of tonic flexions at 20 mg/kg administered 30 min prior to maximal electric shock-challenge (reference value: 0 secs). Type of test: functional.
Test [9] concerns Mus musculus. As to the kind of experiment: Anticonvulsant activity in Swiss albino Mus musculus (mouse) assessed as time duration of maximal electric shock-induced tonic extension at 20 mg/kg administered 30 min prior to maximal electric shock-challenge (reference value: 20.66 +/- 0.8433 secs). Type of test: functional.
For test [10], the system named is Mus musculus. The experiment in a line: Anticonvulsant activity in Swiss albino Mus musculus (mouse) assessed protection against PTZ-induced clonic convulsion at 20 mg/kg administered 60 min prior to PTZ-challenge measured up to 30 min relative to control. Type of test: functional.
In test [11] the test system is Mus musculus. As to the kind of experiment: Anticonvulsant activity in Swiss albino Mus musculus (mouse) assessed as latency time of maximal electric shock-induced clonus onset at 20 mg/kg administered 30 min prior to maximal electric shock-challenge (reference value: 3.16 +/- 0.0833 min). Type of test: functional.

In the case of `O=C(Nc1nc2ccc(Cl)cc2s1)Oc1ccccc1`, the Time with Mus musculus [1] is 70.83 s; in the test on Mus musculus [2] it was 11.2 min; with Mus musculus [5], 8.34 s; in the test on Mus musculus [6], 0 s. The same compound returned an Activity in the test with Mus musculus [3] of 66.66%. Further, the outcome in the test on Mus musculus [4] was Active.
`CCc1ccc2nc(NC(=O)Oc3ccccc3)sc2c1`: the Time is 86 s in the test on Mus musculus [1], 7.59 min in the test on Mus musculus [2], 5.2916 s with Mus musculus [5] and 0 s with Mus musculus [6]. Further, in the test with Mus musculus [3], the Activity was found to be 83.33%. The result in the test on Mus musculus [4] was Active.
For the compound `CCOC(=O)Nc1nc2ccccc2s1`, the Time in the test with Mus musculus [1] was determined as 86.66 s; in the test on Mus musculus [2], 11.18 min; with Mus musculus [5], 7.29 s; in the test on Mus musculus [6], 0 s. The compound further gave an Activity with Mus musculus [3] of 83.33%. Moreover, the outcome with Mus musculus [4] was Active.
As to `CCOC(=O)Nc1nc2ccc(C)cc2s1`, the Time was determined as 12.55 min in the test on Mus musculus [2], 6.24 s in the test with Mus musculus [5] and 0 s in the test with Mus musculus [6]. For the same compound, the Activity with Mus musculus [3] is given as 100%. The result with Mus musculus [4] was Active.
Take `Cc1ccc2nc(NC(=O)Oc3ccccc3)sc2c1`: the Time in the test with Mus musculus [2] was determined as 13.28 min; in the test on Mus musculus [5] it was 6.74 s; with Mus musculus [6], 0 s. Further, the Activity with Mus musculus [3] was 100%. In the test with Mus musculus [4], the result was Active.
For `CCOC(=O)Nc1nc2ccc([N+](=O)[O-])cc2s1`, the Time is given as 80.5 s in the test on Mus musculus [1], 8.37 min in the test with Mus musculus [2], 7.44 s with Mus musculus [5] and 0 s in the test on Mus musculus [6]. The compound also had an Activity in the test on Mus musculus [3] of 83.33%. The result in the test on Mus musculus [4] was Active.
As to `CCOC(=O)Nc1nc2ccc(CC)cc2s1`, the Time with Mus musculus [1] came to 83 s; in the test on Mus musculus [2] it was 10.415 min; in the test with Mus musculus [5], 8.12 s; in the test on Mus musculus [6], 0 s. The same compound yielded an Activity with Mus musculus [3] of 83.33%. In the test on Mus musculus [4], the result was Active.
`O=C(Nc1nc2ccc([N+](=O)[O-])cc2s1)Oc1ccccc1`: the figures for the Time in the test on Mus musculus [2], with Mus musculus [5] and with Mus musculus [6] were 10.34 min, 6.32 s and 0 s, respectively. This compound returned an Activity in the test with Mus musculus [3] of 100%. The outcome with Mus musculus [4] was Active.
The corresponding values for `O=C(Nc1nc2ccccc2s1)Oc1ccccc1` are 11.47 min, 9.54 s, 0 s, 100% and “Active”.
Turning to `CCOC(=O)Nc1nc2c(C)cccc2s1`, the Time in the test on Mus musculus [1] was determined as 85.166 s; with Mus musculus [2], 10.36 min; in the test with Mus musculus [5], 7.33 s; with Mus musculus [6] it was 0 s. Moreover, the Activity with Mus musculus [3] was found to be 83.33%. Besides, the outcome in the test with Mus musculus [4] was Active.
As to `CCOC(=O)Nc1nc2ccc(Cl)cc2s1`, the Time with Mus musculus [1] is given as 71.83 s; in the test with Mus musculus [2], 5.4 min; in the test on Mus musculus [5], 9.27 s; in the test with Mus musculus [6] it was 0 s. The same compound displayed an Activity in the test on Mus musculus [3] of 66.66%. In addition, the outcome in the test with Mus musculus [4] was Active.
Turning to `COc1ccc2nc(NC(=O)Oc3ccccc3)sc2c1`, the Time in the test with Mus musculus [1] was 80.5 s; with Mus musculus [2] it was 4.675 min; in the test with Mus musculus [5] it was 11.08 s; in the test on Mus musculus [6], 0 s. The compound also displayed an Activity with Mus musculus [3] of 66.66%. Besides, in the test on Mus musculus [4], the result was Active.
As for `CCOC(=O)Nc1nc2ccc(OC)cc2s1`, the Time with Mus musculus [2] is 9.56 min; in the test with Mus musculus [5] it was 6.4 s; with Mus musculus [6] it was 0 s. In the test with Mus musculus [3], this compound showed an Activity of 100%. For the same compound, the result in the test with Mus musculus [4] was Active.
Regarding `Cc1cccc2sc(NC(=O)Oc3ccccc3)nc12`, the Time in the test on Mus musculus [1] was found to be 75.166 s; with Mus musculus [2], 9.58 min; with Mus musculus [5] it was 5.48 s; in the test with Mus musculus [6], 0 s. The compound further showed an Activity with Mus musculus [3] of 83.33%. Moreover, the result in the test with Mus musculus [4] was Active.
`O=C1NC(=O)C(c2ccccc2)(c2ccccc2)N1` [PHENYTOIN]: the outcome with Mus musculus [7] was Active. The Time worked out at 5.34 s in the test with Mus musculus [8], 0 s in the test with Mus musculus [9] and 13.39 min with Mus musculus [11]. Besides, the Activity with Mus musculus [10] worked out at 100%.
